Columns and labels:
[1] = In vivo blood elimination kinetics; parameters: species or system female Sprague-Dawley rats
Text: In vivo blood elimination kinetics. The jugular vein of female Sprague-Dawley rats was implanted with catheter for blood collection (Harland, Indianapolis, IN, USA). […] All of the blood samples were collected from the catheter at different time point. Micro-plate reader (SpectraMax M2) was used to measure the ICG concentration at absorbance at 808 nm.

[2] = female, Sprague-Dawley, rat, blood, iv, 5 mg kg^−1, rats

Experimental for OSC-3 oral cancer cells: The in vitro cell cytotoxicity, cellular uptake study and combination therapy of samples were assessed on human OSC-3 oral cancer cell line, which was purchased from American type culture collection (ATCC). The cells were cultured with DMEM supplemented with 10% FBS and 1% Penicillin at 37° C. in humidified atmosphere with 5% CO2 for 24 h. Then the samples were added to each well and the cells were incubated at 37° C. for an additional 24 h. After the incubation, the relative cell viabilities were measured by the MTS assay. […] For in vitro chemo-/photothermal combination therapy, OSC-3 cells were seeded into 96-well plates (n=3) and incubated with different samples for 4 h, followed by exposure to an 808 nm NIR laser (0.8 W cm^2, 2 min). Thereafter, the cells were incubated for another 24 h at 37° C. and MTS reagent was added into each well. The relative cell viabilities were then measured by MTS assay. Percentage of cell viability represents drug effect, and 100% means all cells survived. Cell viability was calculated using the following equation: Cell viability (%)=(OD490 nm of treatment/OD490 nm of blank control)×100%. For in vitro cells apoptosis experiment, OSC-3 cells were co-cultured with different samples (DOX concentration: 25 μg mL^−1 and 808 nm NIR laser (0.8 W cm^2, 2 min), if applied) for 8 h. Cells were washed two times and replaced with fresh medium.

| time to clearance from circulation ([1]; after intravenous administration) | AUC [1, 2] | half-life [1, 2] | SMILES | cell viability (OSC-3 oral cancer cells) |
| --- | --- | --- | --- | --- |
|  |  |  | COc1cccc2c1C(=O)c1c(O)c3c(c(O)c1C2=O)C[C@@](O)(C(=O)CO)C[C@@H]3O[C@H]1C[C@H](N)[C@H](O)[C@H](C)O1 [free DOX, doxorubicin] | 61% |
| ≤ 30 min | 12100 ng·h/mL | 5.22 min | CC1(C)C(/C=C/C=C/C=C/C=C2\N(CCCCS(=O)(=O)O)c3ccc4ccccc4c3C2(C)C)=[N+](CCCCS(=O)(=O)[O-])c2ccc3ccccc3c21 [free ICG, indocyanine green] |  |

From patent US12527880B2, “Cyanine-based telodendrimers and uses for treating cancer” (priority 2018, dated 2026)
